Source: ChEMBL document CHEMBL6087431, “Discovery of a selective and potent inhibitor of c-Jun N-terminal kinase 1 with anti-pulmonary fibrosis effect” (Bioorg Med Chem Lett, 2025)
Active and inactive are the calls of the source. No cut-off for these calls is given here.

Columns and labels:
[1] = biological target: T1, Mitogen-activated protein kinase 8 (Homo sapiens, UniProt P45983); settings: dose 2.0 nM
[2] = biological target: T1, Mitogen-activated protein kinase 8; assay: Inhibition of JNK1 (unknown origin)
[3] = biological target: Mitogen-activated protein kinase 9 (Homo sapiens, UniProt P45984); assay: Inhibition of JNK2 (unknown origin)
Mitogen-activated protein kinase 9, sequence (P45984 whole entry): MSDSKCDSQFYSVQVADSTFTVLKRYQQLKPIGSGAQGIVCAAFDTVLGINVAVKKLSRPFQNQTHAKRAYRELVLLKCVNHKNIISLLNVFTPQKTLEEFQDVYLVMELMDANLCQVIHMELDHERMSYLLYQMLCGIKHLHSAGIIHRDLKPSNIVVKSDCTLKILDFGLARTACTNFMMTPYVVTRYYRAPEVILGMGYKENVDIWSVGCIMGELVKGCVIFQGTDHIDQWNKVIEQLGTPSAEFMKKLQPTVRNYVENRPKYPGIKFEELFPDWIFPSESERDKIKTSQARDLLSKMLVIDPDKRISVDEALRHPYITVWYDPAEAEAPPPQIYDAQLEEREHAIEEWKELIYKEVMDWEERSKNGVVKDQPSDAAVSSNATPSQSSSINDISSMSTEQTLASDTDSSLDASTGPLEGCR

[4] = tested on: A549; assay: Anti-fibrotic activity in human A549 cells assessed as reduction in TGFbeta1-induced c-Jun expression at 0.3 uM by Western blot analysis; type: functional, cell-based
[5] = tested on: A549; assay: Anti-fibrotic activity in human A549 cells assessed as reduction in TGFbeta1-induced fibronectin expression at 0.3 uM by Western blot analysis; type: functional, cell-based
[6] = biological target: T1, Mitogen-activated protein kinase 8; settings: dose 10.0 nM

T1 sequence (P45983 whole entry): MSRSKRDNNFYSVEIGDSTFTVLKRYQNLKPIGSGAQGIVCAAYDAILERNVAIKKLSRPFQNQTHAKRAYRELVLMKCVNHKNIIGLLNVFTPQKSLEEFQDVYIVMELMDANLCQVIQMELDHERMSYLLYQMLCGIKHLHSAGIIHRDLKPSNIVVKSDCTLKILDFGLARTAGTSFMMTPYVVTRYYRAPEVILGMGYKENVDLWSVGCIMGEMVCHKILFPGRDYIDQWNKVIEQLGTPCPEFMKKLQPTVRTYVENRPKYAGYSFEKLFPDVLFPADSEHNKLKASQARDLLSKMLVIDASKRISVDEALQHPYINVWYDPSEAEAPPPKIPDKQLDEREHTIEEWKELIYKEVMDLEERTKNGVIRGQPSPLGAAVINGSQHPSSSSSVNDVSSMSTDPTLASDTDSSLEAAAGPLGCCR

Row | SMILES | inhibition [1] | also measured
1 | CN1C[C@H]2C[C@@H]1CN2C(=O)c1ccc(Nc2ncc(Br)c(Nc3ccccc3C(N)=O)n2)cc1 | 49.3% | –
2 | NC(=O)c1ccccc1Nc1nc(Nc2ccc(C(=O)N3CC4CC3CO4)cc2)ncc1Br (stereo not drawn) | 76.1% | IC50 [2]: 0.8 nM; IC50 [3]: 8.3 nM; Activity [4]: Active; Activity [5]: Active
3 | NC(=O)c1ccccc1Nc1nc(Nc2ccccc2)ncc1Br | 18.1% | IC50 [2]: 3 nM; IC50 [3]: 9.4 nM; inhibition [6]: 62.1%
4 | CN1CC2CCC(C1)N2C(=O)c1ccc(Nc2ncc(Br)c(Nc3ccccc3C(N)=O)n2)cc1 | 56.6% | IC50 [2]: 1.5 nM; IC50 [3]: 12.6 nM
5 | NC(=O)c1ccccc1Nc1nc(Nc2ccc(C(=O)N3C4CCC3COC4)cc2)ncc1Br | 46.3% | –
6 | NC(=O)c1ccccc1Nc1nc(Nc2ccc(C(=O)N3C[C@H]4C[C@@H]3CN4)cc2)ncc1Br | 51.3% | –
7 | NC(=O)c1ccccc1Nc1nc(Nc2ccc(C(=O)N3C4CCC3CNC4)cc2)ncc1Br | 34.4% | –

Further lines, with some results ahead:

Row | inhibition [1] | SMILES | also measured
8 | inactive | NC(=O)c1ccccc1Nc1nc(Nc2ccc(C(=O)N3CCC4(CCCC4)CC3)cc2)ncc1Br | –
9 | 10.8% | NC(=O)c1ccccc1Nc1nc(Nc2ccc(C(=O)N3CC4CC(C3)O4)cc2)ncc1Br | –
10 | 15% | NC(=O)c1ccccc1Nc1nc(Nc2ccc(C(=O)N3CCC4(CC3)OCCO4)cc2)ncc1Br | –
11 | 46.8% | NC(=O)c1ccccc1Nc1nc(Nc2ccc(C(=O)N3CCC4(CCOCC4)CC3)cc2)ncc1Br | –
12 | 60.4% | NC(=O)c1ccccc1Nc1nc(Nc2ccc(C(=O)N3CCC4(CCOC4)CC3)cc2)ncc1Br | IC50 [2]: 1.4 nM; IC50 [3]: 7.4 nM
13 | 49.9% | NC(=O)c1ccccc1Nc1nc(Nc2ccc(C(=O)N3CCC4(CCNC4)CC3)cc2)ncc1Br | –
14 | inactive | NC(=O)c1ccccc1Nc1nc(Nc2ccc(C(=O)N3CCC4(CCCCC4)CC3)cc2)ncc1Br | –
15 | 33.2% | NC(=O)c1ccccc1Nc1nc(Nc2ccc(C(=O)N3CCC4(CCNCC4)CC3)cc2)ncc1Br | –
16 | 45.1% | NC(=O)c1ccccc1Nc1nc(Nc2ccc(C(=O)N3CC4CCC(C3)N4)cc2)ncc1Br | –
17 | 47.6% | NC(=O)c1ccccc1Nc1nc(Nc2ccc(C(=O)N3CCC4(CCCO4)CC3)cc2)ncc1Br | –
